Laboratory results published in US20060110401A1, “Mixture of peptides from c and ns3 proteins of the hepatitis c virus and applications thereof” (priority 2002, published 2006).
Where two headings read alike, the source gives them in different places. Residues, ends and D or L forms follow the SMILES beside them.

How the values were obtained:
HLA-DR3 (DRB1*0301) = target: T1, HLA-DR3 (DRB1*0301) (Homo sapiens, UniProt P01903+P01911, A100K/A102G/A103R/A169T/F55Y/I96L/K41T/L162R/M171V/P40S/Q125H/Q178H/Q39Y/R42S/S66N/T106N/T262R/W38E/Y61H); assay: biochemical; assay type: binding; details: read-out: binds with good affinity to DR3
T1 construct: endogenous in cells; host or cells: homozygous EBV-transformed human B lymphocyte lines; immunopurified with antibody L243

DP402 = assay: DP402
HLA-DR15 (DRB1*1501) = target: T2, HLA-DR15 (DRB1*1501) (Homo sapiens, UniProt P01903+P01911); assay: biochemical; assay type: binding; details: DRB1*1501; read-out: binds with good affinity to DR15
T2 construct: endogenous in cells; host or cells: homozygous EBV-transformed human B lymphocyte lines; immunopurified with antibody L243

HLA-DR4 (DRB1*0401) = target: T3, HLA-DR4 (DRB1*0401) (Homo sapiens, UniProt P01903+P01911, A100K/A169T/F76Y/I96L/K127E/L162R/M171V/N62H/P40V/Q125Y/R42H/S133A/S149N/S66Y/V115G/V209L/W38E); assay: biochemical; assay type: binding; details: read-out: binds with good affinity to DR4
T3 construct: endogenous in cells; host or cells: homozygous EBV-transformed human B lymphocyte lines; immunopurified with antibody L243

HLA-DR7 (DRB1*0701) = HLA-DR7 (DRB1*0701) (Homo sapiens, UniProt P01903+P01911, A100R/A102G/A103Q/D57E/D86V/E43K/F76Y/K127E/L162R/M171V/P40G/Q125H/Q99D/R33Q/R42Y/R54Q/S133A/S66F/T210M/V115G/Y107V/Y59L/Y89S); assay: biochemical; assay type: binding; details: read-out: binds with good affinity to DR7
DRB3 = assay: DRB3
HLA-DR11 (DRB1*1101) = HLA-DR11 (DRB1*1101) (Homo sapiens, UniProt P01903+P01911, A100R/A169T/A87E/I96F/K41T/L162R/M171V/P40S/Q125H/Q178H/Q39Y/Q99D/R42S/S66Y/T262R/V115G/W38E); assay: biochemical; assay type: binding; details: read-out: binds with good affinity to DR11
DR15 = assay: DR15
HLA-DRB4 (DRB4*0101) = target: T4, HLA-DRB4 (DRB4*0101) (Homo sapiens, UniProt P01903+P13762, G164S); assay: biochemical; assay type: binding; details: read-out: binds with good affinity to DRB4
T4 construct: endogenous in cells; host or cells: homozygous EBV-transformed human B lymphocyte lines; immunopurified with antibody L243

HLA-DP402 (DPB1*0402) = HLA-DP402 (DPB1*0402) (Homo sapiens, UniProt P04440+P20036, A65V/A84D/A85E/L207M); assay: biochemical; assay type: binding; details: DP*0402; read-out: binds with good affinity to DP402
DP401 = assay: DP401
HLA-DRB5 (DRB5*0101) = target: T5, HLA-DRB5 (DRB5*0101) (Homo sapiens, UniProt P01903+Q30154); assay: biochemical; assay type: binding; details: read-out: binds with good affinity to DRB5
T5 construct: endogenous in cells; host or cells: homozygous EBV-transformed human B lymphocyte lines; immunopurified with antibody L243

HLA-DR13 (DRB1*1301) = HLA-DR13 (DRB1*1301) (Homo sapiens, UniProt P01903+P01911, A100E/A169T/K41T/L162R/M171V/P40S/Q125H/Q178H/Q39Y/Q99D/R42S/S66N/T262R/W38E/Y61H); assay: biochemical; assay type: binding; details: read-out: binds with good affinity to DR13
DRB5 = assay: DRB5
DR7 = assay: DR7
HLA-DR1 (DRB1*0101) = target: T6, HLA-DR1 (DRB1*0101) (Homo sapiens, UniProt P01903+P01911, A100R/D57E/F55L/F60I/F76Y/I96L/L162R/M171V/P40L/Q125E/R42F/V115G/Y59C); assay: biochemical; assay type: binding; details: for IC50: DRB1*0101; for affinity for HLA-DR1 (in words): legend of FIG. 4
T6 construct: endogenous in cells; host or cells: homozygous EBV-transformed human B lymphocyte lines; immunopurified with antibody L243

DRB4 = assay: DRB4
Source text: (§1) Table printed on a drawing sheet, Figure 2
Where the first naming reader finds the target: head: DRB4

DR11 = assay: DR11
Source text: as §1
Where the first naming reader finds the target: head: DR11

DR3 = assay: DR3
Source text: as §1
Where the first naming reader finds the target: head: DR3

[1] = test system: T lymphocytes derived from PBMCs from patients chronically infected with HCV; assay type: cell-based, human; details: supernatant 48 h, —: not detected
DR13 = assay: DR13
Source text: as §1
Where the first naming reader finds the target: head: DR13

DR1 = assay: DR1
DR4 = assay: DR4
HLA-DRB3 (DRB3*0101) = target: T7, HLA-DRB3 (DRB3*0101) (Homo sapiens, UniProt P01903+P79483); assay: HLA II/peptide binding assay, HLA-DRB3; details: read-out: binds with good affinity to DRB3
T7 construct: endogenous in cells; host or cells: homozygous EBV-transformed human B lymphocyte lines; immunopurified with antibody L243

[2] = competition with biotinylated tracer HA 306-318, read-out: IC50, binding to HLA-DR1
[3] = read-out: binds with good affinity to DR1

Sequence of HLA-DR11 (DRB1*1101) (P01903 26-254 limits assumed, other chains not shown): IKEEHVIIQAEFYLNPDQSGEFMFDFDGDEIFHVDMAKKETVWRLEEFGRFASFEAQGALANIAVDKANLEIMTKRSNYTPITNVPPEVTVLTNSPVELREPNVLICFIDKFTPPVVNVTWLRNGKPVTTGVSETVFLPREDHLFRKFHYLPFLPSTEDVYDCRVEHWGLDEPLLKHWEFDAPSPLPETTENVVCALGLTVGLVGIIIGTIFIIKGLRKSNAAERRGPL

SMILES	IC50 (HLA-DR3 (DRB1*0301)) [nM]	IC50 (DP402) [nM]	IC50 (HLA-DR15 (DRB1*1501)) [nM]	IC50 (HLA-DR4 (DRB1*0401)) [nM]	IC50 (HLA-DR7 (DRB1*0701)) [nM]	IC50 (DRB3) [nM]	IC50 (HLA-DR11 (DRB1*1101)) [nM]	IC50 (DR15) [nM]	IC50 (HLA-DRB4 (DRB4*0101)) [nM]	IC50 (HLA-DP402 (DPB1*0402)) [nM]	IC50 (DP401) [nM]	IC50 (HLA-DRB5 (DRB5*0101)) [nM]	IC50 (HLA-DR13 (DRB1*1301)) [nM]	IC50 (DRB5) [nM]	IC50 (DR7) [nM]	IC50 (HLA-DR1 (DRB1*0101); [2]) [nM]	IC50 (HLA-DR1 (DRB1*0101); [3]) [nM]	affinity for HLA-DR1 (in words) (HLA-DR1 (DRB1*0101))	IC50 (DRB4) [nM]	IC50 (HLA-DRB3 (DRB3*0101)) [nM]	other results
CC[C@H](C)[C@H](NC(=O)[C@H](CCC(=O)O)NC(=O)[C@H](CCCNC(=N)N)NC(=O)CN)C(=O)N[C@@H](CC(C)C)C(=O)N[C@@H](CC(C)C)C(=O)NCC(=O)N1CCC[C@H]1C(=O)N[C@@H](C)C(=O)N[C@@H](CC(=O)O)C(=O)NCC(=O)N[C@@H](CCSC)C(=O)N[C@H](C(=O)N[C@@H](CO)C(=O)N[C@@H](CCCCN)C(=O)NCC(=O)N[C@@H](Cc1c[nH]c2ccccc12)C(=O)N[C@@H](CCCNC(=N)N)C(=O)N[C@@H](CC(C)C)C(=O)N[C@@H](CC(C)C)C(=O)N[C@@H](C)C(=O)N1CCC[C@H]1C(=O)N[C@H](C(=O)N[C@H](C(=O)N[C@@H](C)C(=O)N[C@@H](Cc1ccc(O)cc1)C(=O)N[C@@H](C)C(=O)N[C@@H](CCC(N)=O)C(=O)N[C@@H](CCC(N)=O)C(=O)N[C@H](C(=O)N[C@@H](CCCNC(=N)N)C(=O)O)[C@@H](C)O)[C@@H](C)O)[C@@H](C)CC)C(C)C [8N 1007-1037]	< 1000	881	< 1000	< 1000	< 1000	15000	< 1000	30	< 1000	< 1000	7200	< 1000	< 1000	2	88	2	< 1000	high affinity	60		IC50 (DR11): 1 nM; IC50 (DR3): 200 nM; IL10 ([1]; patient 067): 43 pg/mL; IL10 ([1]; patient 078): 41 pg/mL
CC[C@H](C)[C@H](NC(=O)[C@@H](NC(=O)[C@H](Cc1ccccc1)NC(=O)[C@@H](NC(=O)[C@@H]1CCCN1C(=O)[C@H](CC(=O)O)NC(=O)[C@H](CC(C)C)NC(=O)[C@H](CO)NC(=O)[C@H](Cc1ccccc1)NC(=O)[C@H](CC(=O)O)NC(=O)[C@@H](NC(=O)[C@@H](NC(=O)[C@H](CCC(N)=O)NC(=O)[C@@H](NC(=O)[C@@H](NC(=O)[C@H](C)NC(=O)[C@@H](N)[C@@H](C)O)C(C)C)[C@@H](C)O)[C@@H](C)O)C(C)C)[C@@H](C)O)[C@@H](C)O)C(=O)N[C@@H](CCC(=O)O)C(=O)N[C@H](C(=O)N[C@H](C(=O)N[C@H](C(=O)N[C@@H](CC(C)C)C(=O)N1CCC[C@H]1C(=O)N[C@@H](CCC(N)=O)C(=O)N[C@@H](CC(=O)O)C(=O)N[C@@H](C)C(=O)O)[C@@H](C)O)[C@@H](C)CC)[C@@H](C)O [26N 1456-1481]	< 1000		< 1000	< 1000	< 1000	40	< 1000		< 1000			< 1000	< 1000		20		< 1000			< 1000	IC50 (DR13): 300 nM; IC50 (DR1): 2 nM; IC50 (DR4): 8 nM
CC[C@H](C)[C@H](NC(=O)CNC(=O)[C@@H]1CCCN1C(=O)[C@@H](N)CCCCN)C(=O)N[C@@H](Cc1ccc(O)cc1)C(=O)N[C@@H](CCCNC(=N)N)C(=O)N[C@@H](Cc1ccccc1)C(=O)N[C@H](C(=O)N[C@@H](C)C(=O)N1CCC[C@H]1C(=O)NCC(=O)N[C@@H](CCC(=O)O)C(=O)N[C@@H](CCCNC(=N)N)C(=O)N1CCC[C@H]1C(=O)N[C@@H](CO)C(=O)NCC(=O)N[C@@H](CCSC)C(=O)N[C@@H](Cc1ccccc1)C(=O)N[C@@H](CC(=O)O)C(=O)O)C(C)C [27N 1495-1513] (H-KPGIYRFVAPGERPSGMFD-OH; N-terminus and C-terminus assumed)		> 100000	< 1000		< 1000	40000	< 1000	150	< 1000		> 100000	< 1000		2	313		< 1000			< 1000	IC50 (DR11): 175 nM
CSCC[C@H](NC(=O)[C@H](Cc1ccc(O)cc1)NC(=O)[C@H](C)NC(=O)[C@H](CCCNC(=N)N)NC(=O)[C@H](CC(C)C)NC(=O)[C@H](CCCNC(=N)N)NC(=O)[C@@H](NC(=O)[C@@H](NC(=O)[C@@H](NC(=O)[C@H](CCC(=O)O)NC(=O)[C@H](C)NC(=O)[C@@H]1CCCN1C(=O)[C@@H](NC(=O)[C@H](CC(C)C)NC(=O)[C@H](CCC(=O)O)NC(=O)[C@H](Cc1ccc(O)cc1)NC(=O)[C@H](Cc1c[nH]c2ccccc12)NC(=O)[C@H](C)NC(=O)[C@H](C)NC(=O)CN)[C@@H](C)O)[C@@H](C)O)[C@@H](C)O)C(C)C)C(=O)N[C@@H](CC(N)=O)C(=O)N[C@H](C(=O)N1CCC[C@H]1C(=O)NCC(=O)N[C@@H](CC(C)C)C(=O)N1CCC[C@H]1C(=O)N[C@H](C(=O)N[C@@H](C)C(=O)N[C@@H](CCC(N)=O)C(=O)N[C@@H](CC(=O)O)C(=O)O)C(C)C)[C@@H](C)O [28N 1524-1553]			< 1000	< 1000	< 1000		< 1000	1	< 1000	< 1000		< 1000		20	5	2	< 1000	high affinity	30	< 1000	IC50 (DR13): 10000 nM; IL2 ([1]; patient 067): — 76 pg/ml; IL10 ([1]; patient 067): 86 pg/mL; IL10 ([1]; patient 078): 21 pg/mL; IL4 ([1]; patient 093): — 11 pg/ml; IL10 ([1]; patient 829): 67 pg/mL
